We go through 15 molecules from the SangsterLogP compilation.

The nature of the series: method code SF, from DOI: 10.1016/0223-5234(96)88223-7.

The term logP denotes a log measure of how a compound divides between an organic and an aqueous phase. Read a low logP as a more hydrophilic compound.

For `CCc1ccc(-c2nc3ncccc3[nH]2)cc1`, the logP turned out to be 3.42.

Regarding `Clc1ccc(Cc2nc3ccc(Cl)cc3[nH]2)cc1`, the logP turned out to be 5.18.

`COc1ccc(Cc2nc3ccc([N+](=O)[O-])cc3[nH]2)cc1` had a logP of 3.48.

Molecule `Cc1ccc(-c2nc3ccc([N+](=O)[O-])cc3[nH]2)c(C)c1` returned a logP of 4.1.

With `Cc1ccccc1-c1nc2ccc([N+](=O)[O-])cc2[nH]1`, the logP worked out at 3.42.

`Cc1ccc(-c2nc3ncccc3[nH]2)cc1` came in with a logP of 3.02.

As for `Clc1ccc(-c2nc3ncccc3[nH]2)cc1`, the logP came out at 2.95.

`Cc1ccc(Cc2nc3ccc(Cl)cc3[nH]2)cc1` returned a logP of 5.21.

For the molecule `Nc1ccc(Cc2nc3ccc(Cl)cc3[nH]2)cc1`, the logP is 3.2.

Molecule `COc1ccccc1-c1nc2ccccc2[nH]1` showed a logP of 3.02.

`CC(C)(C)c1ccc(-c2nc3ncccc3[nH]2)cc1`: the logP amounted to 4.82.

On to `Clc1ccc2nc(Cc3ccc(Br)cc3)[nH]c2c1`, for which the logP is 5.38.

Molecule `Cc1ccc(-c2nc3ccccc3[nH]2)cc1` had a logP of 3.67.

Take `Fc1ccc(-c2nc3ncccc3[nH]2)cc1`: the logP was found to be 2.52.

Molecule `COc1ccc(-c2nc3ccc(C)cc3[nH]2)c(OC)c1` yielded a logP of 3.78.
